Structures are written as SMILES. pEC50: −log10 of the molar value. Where two headings read alike, the source gives them in different places.

One data set concerns right ventricular strips. Description: Cardiac stimulant activity in vitro, guinea pig ventricular strips (force of contraction). To be noted: Cavia porcellus, 50% increase in force of contraction; guinea pig ventricular strips; read-out: EC50 × 10^-6 M. Here is the method:
The compounds of formula (I) and their pharmaceutically acceptable salts are tested for cardiac stimulant activity following a procedure based on that of S. C. Verma and J. H. McNeill (J.Pharm & Exp. Therapeutics, 200, 352-362 (1977)). Guinea pigs (500-700 g) of either sex are sacrificed and the hearts are quickly removed and transferred to a dissecting dish containing oxygenated bathing fluid. While in the bathing medium, the right ventricle is cut into two strips. The strips are each suspended in a 50 ml bath containing Krebs Henseleit solution at 37° C., and the bath is bubbled with 95% oxygen and 5% carbon dioxide. The ventricular strips are electrically stimulated at a frequency of 1.0 Hz, at double the threshold voltage. A resting tension of 1.0 g is applied to the strips and the tension is kept constant by readjustment during an equilibration period of 60 minutes. The bathing fluid is frequently changed during this period. When a steady base line is obtained, a compound under test is added to the bathing fluid and a cumulative concentration response curve is plotted. The compounds for use in the present invention which were tested gave a 50% increase in the force of contraction of the ventricular strips at concentrations in the bathing fluid of less than 10^-4 molar, thus showing that they have activity as positive inotropic agents.

The test system of data set [1] is left ventricular dp/dt max. Description: Cardiac stimulant activity in vivo, anaesthetised cats (left ventricular dp/dt max). Set-up: species or system cat; key to Relative Duration: ***: long; **: medium; *: short. An excerpt: The dose to increase left ventricular dp/dt max by 50% is given as the ED50.
For data set [2], the system named is left ventricular dp/dt max. Nature of the data set: Cardiac stimulant activity in vivo, conscious dogs (left ventricular dp/dt max). Set-up: species or system dog. Conditions: for minimal effective dose: Canis lupus familiaris. The protocol:
Oral administration caused positive inotropic responses at doses of 0.25 mg/kg and below. […] Therefore this compound is particularly beneficial with regard to `force-rate` selectivity.

The subject of a further data set is hindquarters blood flow. Nature of the data set: Vasodilator activity, anaesthetised rat hindquarters autoperfused at constant blood pressure. It is filed as in vivo. From the text:
The dose to increase hindquarters blood flow by 50% was 4.6 μmol/Kg.

The subject of data set [3] is 2-pyridylethylamine-induced bronchoconstriction. Description: Bronchodilatation in vivo, 2-pyridylethylamine-induced bronchoconstriction. Set-up: species or system guinea-pigs (Dunkin Hartley). To be noted: i.v. bolus one minute before challenge. The protocol: Male guinea-pigs of the Dunkin Hartley strain (530 g±6 g) were anaesthetised with Sagatal (pentobarbital sodium) (90 mg/kg i.p.). Airway resistance was measured using a modification of the classical Konzett-Rossler technique (Versuchsanordnung zu Untersuchungen an der Bronchialmuskulatur. Naunyn-Schmiedebergs Arch. Exp. Path. Pharmak., 30: pp 121-145, (1940)). A dose of 2-pyridylethylamine which gave approximately 100% increase in airway resistance was selected for i.v. administration. Bolus doses of the compound of Example 1 were administered (i.v.) one minute before the 2-pyridylethylamine challenge.

In another data set the test system is platelets. Nature of the data set: Platelet aggregation inhibition in vitro (platelet rich plasma). It is filed as cell-based, normal healthy volunteers (human). Here is the method:
Plasma was prepared as follows. Blood from 6 normal healthy volunteers was mixed with 3.8% w/v trisodium citrate (9 parts blood: 1 part citrate). The samples were centrifuged at 150 g for 10 minutes and the supernatant platelet rich plasma (PRP) was removed. The platelet concentration in the PRP was adjusted to 300±50×10^9 /1 platelets with autologous platelet poor plasma.
25 μl aliquots of a 40 μg/ml solution of the compound of Example 1 were incubated with 225 μl aliquots of PRP in a Payton Aggregometer for 3 minutes. Control solutions, one matched to the test solution with respect to solution pH and tonicity, and another of 0.9% w/v NaCl were also studied. After 3 minutes 25 μl aliquots of adenosine diphosphate solution at a concentration of 20 μm were added to each solution. The aggregation response was recorded until complete with a maximum of 3 minutes. The procedure was repeated using as different aggregation agents: 100 μg collagen; 100 μm adrenaline or 5 mg/ml arachidonic acid instead of adenosine diphosphate.
The aggregation responses induced by the different aggregation agents were measured for the platelets from each donor. The results were assessed by visual examination of the aggregation tracing produced by the Payton aggregometer and semi-quantitatively assessed by measurement of the light transmission 3 minutes after adding the inducing agent.
Serial dilutions of this compound were prepared and tested for inhibition of adenosine diphosphate induced aggregation.

[4] abbreviates: i.v., anaesthetised rat hindquarters.

What is called pEC50 is −log10 of the EC50, conventionally taken in molar units. Regarding `CNC(=NC#N)Nc1ccc(C2=NNC(=O)CC2C)cc1` (stereo not drawn) [Example 1, 6-[4-(N^3 -Methyl-N^2-cyanoguanidino)phenyl]-5-methyl-4,5-dihydro-3(2H)-pyridazinone], the pEC50 in the data set on right ventricular strips is 5.85. The ED50 is 0.2 µmol/kg in data set [1] (Felis catus, intravenous, dose to increase left ventricular dp/dt max by 50%, anaesthetised cats) and 0.39 µmol/kg in data set [3] (Cavia porcellus, iv, read-out: ED50, dose which reduced the 2-pyridylethylamine bronchoconstriction by 50%). The “Relative Duration” value in data set [1] (estimated in anaesthetised cats following i.v. administration) is given as “***”. In addition, the “changes in blood pressure or heart rate” value in data set [2] is “without changes in blood pressure or heart rate”. Also, the minimal effective dose in data set [2] (intravenous, read-out: dose increasing left ventricular dp/dt max) was < 0.1 mg/kg; in data set [2] (oral, read-out: dose causing positive inotropic responses), ≤ 0.25 mg/kg; in data set [3] (Cavia porcellus, read-out: threshold dose) it was 0.0316 µmol/kg. Moreover, the “persistence of positive inotropic responses” value in data set [2] (persisted for up to) lay within 9 to 12 h. For the same molecule, in the data set on hindquarters blood flow (Rattus norvegicus, iv, anaesthetised rat, read-out: dose to increase hindquarters blood flow by 50%), the ED (50% increase in hindquarters blood flow) is 4.6 µmol/kg. The “dose range of dose-dependent vasodilatation” value with hindquarters blood flow (setting [4]) is 1 to 10 µmol/kg. The duration of activity result in the data set on hindquarters blood flow (setting [4]) was “significant duration of activity”. Further, the “effect on 2-pyridylethylamine-induced bronchoconstriction” value in data set [3] was “reduced the 2-pyridylethylamine-induced bronchoconstriction”. For the same molecule, the IC100 in the data set with platelets (Homo sapiens, Platelet, adenosine diphosphate induced aggregation, serial dilutions, read-out: concentration completely inhibiting second wave aggregation) was ≥ 0.5 µg/mL. Also, in the data set with platelets (final concentrations of 5 μg/ml, adenosine diphosphate), the “inhibition of platelet aggregation induced by adenosine diphosphate” value is given as “inhibited platelet aggregation”. Besides, the “inhibition of platelet aggregation induced by adrenaline” value in the data set on platelets (final concentrations of 5 μg/ml, adrenaline) is reported as “inhibited platelet aggregation”. Moreover, the “inhibition of platelet aggregation induced by arachidonic acid” value in the data set on platelets (final concentrations of 5 μg/ml, arachidonic acid) is on record as “inhibited platelet aggregation”. Further, in the data set on platelets (final concentrations of 5 μg/ml, collagen), the “inhibition of platelet aggregation induced by collagen” value is listed as “inhibited platelet aggregation”.

These data come from patent publication US4654342A, “6-(cyanoguanidinophenyl)pyridazinones as cardiac stimulants” (Smith Kline & French Laboratories Ltd., priority 1984, dated 1987).
